pIC50, pKd: −log10 of the molar value.
How the values were obtained:
MCL1 = MCL1 (Homo sapiens, UniProt Q07820); test: MCL1 affinity assay (competition binding, qPCR readout); details: recombinant MCL1, 11-point 3-fold dilution series
Experimental: Recombinant MCL1, BCL2 and BCXL proteins were prepared in either an E. coli host derived from the BL21 strain or in HEK-293 cells. The recombinant proteins were subsequently tagged with DNA for qPCR detection. Streptavidin-coated magnetic beads were treated for 30 minutes at room temperature with the respective biotinylated peptide ligands for each recombinant protein to generate affinity resins for the assays. The liganded beads were blocked with excess biotin and washed with blocking buffer (SeaBlock (Pierce), 1% BSA, 0.05% Tween 20, 1 mM DTT) to remove unbound ligand and to reduce nonspecific binding. Binding reactions were assembled by combining recombinant protein, liganded affinity beads, and test compounds in 1× binding buffer (20% SeaBlock, 0.17×PBS, 0.05% Tween 20, 6 mM DTT). Test compounds were prepared as 111X stocks in 100% DMSO. The compounds were then diluted directly into the assays such that the final concentration of DMSO was 0.9%. The assay plates were incubated at room temperature with shaking for 1 hour and the affinity beads were washed with wash buffer (1×PBS, 0.05% Tween 20). The beads were then re-suspended in elution buffer (1×PBS, 0.05% Tween 20, 0.5 μM non-biotinylated affinity ligand) and incubated at room temperature with shaking for 30 minutes. The recombinant protein concentration in the eluates was measured by qPCR. Kds were determined using an 11-point 3-fold compound dilution series with three DMSO control points.

[1] = tested on: drug-sensitive cell lines of Table 3; test: Cell line growth retardation assay, sensitive cohort; assay type: cell-based, Human; details: for pIC50: Homo sapiens, 144 h, arithmetic mean of IC50s over the sensitive cohort of Table 3, 6 days growth, read-out: AvgSen IC50; for Fold Diff: average IC50 of resistant cohort divided by average IC50 of sensitive cohort
Experimental: (§1) Cells were seeded at densities of 1,000-5,000 cells per well in 48-well tissue culture plates. After a 24 h rest period, cells were treated with compound at 10 μM, 1 μM, […], 0.08 μM, 0.016 μM, and 0.0032 μM. A group of cells were treated with the vehicle in which the compound was prepared and served as a control. Prior to treatment, cells were counted and this count was used as a baseline for the calculation of growth inhibition. The cells were grown in the presence of compounds for 6 days and were counted on day 6. All cell counting was performed using a Synentec Cellavista plate imager. Growth inhibition was calculated as a ratio of cell population doublings in the presence of compound versus the absence of compound. […] IC50 values for each compound were calculated by fitting curves to data points from each dose-response assay using the Proc NLIN function in SAS for Windows version 9.2 (SAS Institute, Inc.).
(§2) Human cancer cell lines were grouped as “sensitive” or “resistant” to MCL1 inhibition based on whether their growth was retarded by AMG-176 (i.e., (1′S,11R,12S,14E,16S,16aR,18aR)-6′-Chloro-3′,4′,12,13,16,16a,17,18,18a,19-decahydro-16-methoxy-11,12-dimethyl-,Spiro[5,7-etheno-1H,11H-cyclobut[i][1,4]oxazepino[3,4-f][1,2,7]thiadiazacyclohexadecine-2(3H),1′(2′H)-naphthalen]-8(9H)-one 10,10-dioxide) or MIK665 (i.e., (R)-2-((5-(3-chloro-2-methyl-4-(2-(4-methylpiperazin-1-yl)ethoxy)phenyl)-6-(4-fluorophenyl)thieno[2,3-d]pyrimidin-4-yl)oxy)-3-(2-((2-(2-methoxyphenyl)pyrimidin-4-yl)methoxy)phenyl)propanoic acid) (data not shown; see Table 3). These sensitive and resistant cohorts were interrogated for response to each compound, and IC50S were calculated for each cell line using the same technique described above. Average IC50S for the sensitive (“AvgSen IC50”) and resistant (“AvgRes IC50”) cohorts were calculated as arithmetic means of the group, and fold differences (“Fold Diff”) between the resistant and sensitive cohorts were calculated by diving the average IC50 for the resistant cohort by the average IC50 for the sensitive cohort. “A” represents an IC50 of 1 μM or less, “B” represents an IC50 of greater than 1 μM to 5 μM, “C” represents an IC50 of greater than 5 μM, “+” represents a fold difference of 10 or more, and “−” represents a fold difference less than 10.

[2] = tested on: drug-resistant cell lines of Table 3; test: Cell line growth retardation assay, resistant cohort; assay type: cell-based, Human; details: Homo sapiens, 144 h; arithmetic mean of IC50s over the resistant cohort of Table 3, 6 days growth; read-out: AvgRes IC50
Experimental: as §1, §2

Chain of MCL1 (Q07820 whole entry): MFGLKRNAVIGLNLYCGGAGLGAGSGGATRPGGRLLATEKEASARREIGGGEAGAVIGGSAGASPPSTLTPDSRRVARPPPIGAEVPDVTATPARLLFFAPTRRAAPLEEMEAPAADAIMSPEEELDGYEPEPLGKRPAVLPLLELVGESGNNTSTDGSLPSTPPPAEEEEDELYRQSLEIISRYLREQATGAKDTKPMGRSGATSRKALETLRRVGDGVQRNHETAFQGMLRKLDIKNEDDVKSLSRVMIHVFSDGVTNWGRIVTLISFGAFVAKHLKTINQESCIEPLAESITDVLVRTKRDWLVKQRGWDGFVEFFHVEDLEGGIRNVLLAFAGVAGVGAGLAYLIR

Row | SMILES | pKd (MCL1) | pIC50 [1] | Fold Diff [1] | pIC50 [2]
1 | COc1cc(-c2ncc3snc(O[C@H](Cc4ccccc4OCc4ccnc(-c5ccccc5OC)n4)C(=O)O)c3c2-c2ccc(OCCN3CCN(C)CC3)c(Cl)c2C)ccn1 (atropisomer, axis not shown) [Compound 33] | ≥ 7.00 | ≥ 6.00 | + (“+” represents a fold difference of 10 or more) | < 5.30
2 | COc1ccccc1-c1nccc(COc2ccccc2C[C@@H](Oc2nsc3cnc(C4CCC4)c(-c4ccc(OCCN5CCOCC5)c(Cl)c4C)c23)C(=O)O)n1 (atropisomer, axis not shown) [Compound 108] | ≥ 7.00 | 5.30 to 6.00 | − (“−” represents a fold difference less than 10) | < 5.30
3 | Cc1c(-c2c(C3CCC3)ncc3snc(O[C@H](Cc4ccccc4OCc4ccnc(C5CCOCC5)n4)C(=O)O)c23)ccc(OCCN2CCN(C)CC2)c1Cl (atropisomer, axis not shown) [Compound 111] | ≥ 7.00 | ≥ 6.00 | + (“+” represents a fold difference of 10 or more) | < 5.30
4 | COc1ccccc1-c1nccc(COc2ccccc2C[C@@H](Oc2nsc3cnc(C4CC4)c(-c4ccc(OCCN(C)C)c(Cl)c4C)c23)C(=O)O)n1 (atropisomer, axis not shown) [Compound 56] | ≥ 7.00 | ≥ 6.00 | + (“+” represents a fold difference of 10 or more) | < 5.30
5 | Cc1cc(C#N)ccc1-c1nccc(COc2ccccc2C[C@@H](Oc2nsc3cnc(C4CCC4)c(-c4ccc(OCCN5CCN(C)CC5)c(Cl)c4C)c23)C(=O)O)n1 (atropisomer, axis not shown) [Compound 116] | ≥ 7.00 | ≥ 6.00 | + (“+” represents a fold difference of 10 or more) | < 5.30
6 | COc1ccccc1-c1nccc(COc2ccccc2C[C@@H](Oc2nsc3cc(-c4nn(C)c5cc(Cl)ccc45)cc(-c4ccc(OCCN5CCN(C)CC5)c(Cl)c4C)c23)C(=O)O)n1 [Compound 97] | 5.82 to 6.30 | 5.30 to 6.00 | − (“−” represents a fold difference less than 10) | < 5.30
7 | COc1cccc(-c2ncc3snc(O[C@H](Cc4ccccc4OCc4ccnc(N5CCC(OC)CC5)n4)C(=O)O)c3c2-c2ccc(OCCN3CCN(C)CC3)c(Cl)c2C)c1 (atropisomer, axis not shown) [Compound 70] | 6.30 to 7.00 | ≥ 6.00 | + (“+” represents a fold difference of 10 or more) | < 5.30
8 | CCOc1cccc(-c2ncc3snc(O[C@H](Cc4ccccc4OCc4ccnc(-c5ccccc5OC)n4)C(=O)O)c3c2-c2ccc(OCCN3CCN(C)CC3)c(Cl)c2C)c1 (atropisomer, axis not shown) [Compound 87] | ≥ 7.00 | ≥ 6.00 | + (“+” represents a fold difference of 10 or more) | < 5.30
9 | Cn1nc(-c2cc(CC3CCC3)c3c(O[C@H](Cc4ccccc4OCc4ccnn4CC(F)(F)F)C(=O)O)nsc3c2)c2ccc(Cl)cc21 [Compound 96] | < 5.82 | < 5.30 | − (“−” represents a fold difference less than 10) | < 5.30
10 | COc1cccc(-c2ncc3snc(O[C@H](Cc4ccccc4OCc4ccnc(-c5cc(F)ccc5OC)n4)C(=O)O)c3c2-c2ccc(OCCN3CCN(C)CC3)c(Cl)c2C)c1 (atropisomer, axis not shown) [Compound 67] | ≥ 7.00 | ≥ 6.00 | + (“+” represents a fold difference of 10 or more) | < 5.30
11 | COc1cccc(-c2ncc3snc(O[C@H](Cc4ccccc4OCc4ccnc(OCCC(F)(F)F)n4)C(=O)O)c3c2-c2ccc(OCCN3CCN(C)CC3)c(Cl)c2C)c1 (atropisomer, axis not shown) [Compound 57] | ≥ 7.00 | ≥ 6.00 | + (“+” represents a fold difference of 10 or more) | < 5.30
12 | COc1ccccc1-c1nccc(COc2ccccc2C[C@@H](Oc2nsc3cnc(-c4ccc(F)cc4)c(-c4ccc(OCCC5CCN(C)CC5)c(Cl)c4C)c23)C(=O)O)n1 (atropisomer, axis not shown) [Compound 81] | ≥ 7.00 | 5.30 to 6.00 | − (“−” represents a fold difference less than 10) | < 5.30
13 | COc1ccccc1-c1nccc(COc2ccccc2C[C@@H](Oc2nsc3cnc(-c4cccc(F)c4)c(-c4ccc(OCCN5CCN(C)CC5)c(Cl)c4C)c23)C(=O)O)n1 (atropisomer, axis not shown) [Compound 35] | ≥ 7.00 | ≥ 6.00 | + (“+” represents a fold difference of 10 or more) | < 5.30
14 | COc1cccc(-c2ncc3snc(O[C@H](Cc4ccccc4OCc4ccnc(-c5ccccc5S(C)(=O)=O)n4)C(=O)O)c3c2-c2ccc(OCCN3CCN(C)CC3)c(Cl)c2C)c1 (atropisomer, axis not shown) [Compound 68] | ≥ 7.00 | 5.30 to 6.00 | − (“−” represents a fold difference less than 10) | < 5.30
15 | COc1ccccc1C[C@@H](Oc1nsc2cnc(-c3cccc(F)c3)c(-c3ccc(OCCN4CCN(C)CC4)c(Cl)c3C)c12)C(=O)O (atropisomer, axis not shown) [Compound 93] | 6.30 to 7.00 | 5.30 to 6.00 | − (“−” represents a fold difference less than 10) | < 5.30
16 | COc1cccc(-c2ncc3snc(O[C@H](Cc4ccccc4OCc4ccnc(OCCCC(F)(F)F)n4)C(=O)O)c3c2-c2ccc(OCCN3CCN(C)CC3)c(Cl)c2C)c1 [Compound 59] | 6.30 to 7.00 | 5.30 to 6.00 | − (“−” represents a fold difference less than 10) | < 5.30
17 | COc1cccc(-c2ncc3snc(O[C@H](Cc4ccccc4OCc4ccnc(N5CCC(OC(F)F)CC5)n4)C(=O)O)c3c2-c2ccc(OCCN3CCN(C)CC3)c(Cl)c2C)c1 (atropisomer, axis not shown) [Compound 63] | 5.82 to 6.30 | 5.30 to 6.00 | − (“−” represents a fold difference less than 10) | < 5.30
18 | COc1ccccc1-c1nccc(COc2ccccc2C[C@@H](Oc2nsc3cnc(-c4cnn(CC(C)C)c4)c(-c4ccc(OCCN5CCN(C)CC5)c(Cl)c4C)c23)C(=O)O)n1 (atropisomer, axis not shown) [Compound 79] | 5.82 to 6.30 | ≥ 6.00 | − (“−” represents a fold difference less than 10) | 5.30 to 6.00
19 | Cc1cc(-c2nccc(COc3ccccc3C[C@@H](Oc3nsc4cnc(C5CCC5)c(-c5ccc(OCCN6CCN(C)CC6)c(Cl)c5C)c34)C(=O)O)n2)ccc1S(=O)(=O)N1CCCC1 (atropisomer, axis not shown) [Compound 115] | 6.30 to 7.00 | 5.30 to 6.00 | − (“−” represents a fold difference less than 10) | < 5.30
20 | COc1cccc(-c2ncc3snc(O[C@H](Cc4ccccc4OCc4ccnc(N5CCCC(C)(C)C5)n4)C(=O)O)c3c2-c2ccc(OCCN3CCN(C)CC3)c(Cl)c2C)c1 (atropisomer, axis not shown) [Compound 62] | 5.82 to 6.30 | 5.30 to 6.00 | − (“−” represents a fold difference less than 10) | < 5.30

Reference: patent US20230116602A1, “MCL1 INHIBITORS AND USES THEREOF” (California Institute of Technology, priority 2019, published 2023)
